Measurements from patent US20220395500A1, “SMALL MOLECULE ACTIVATORS OF INTERFERON REGULATORY FACTOR 3 AND METHODS OF USE THEREOF” (Neuralexo, Inc., priority 2020, published 2022).

Legend:
[1] = THP1-Dual cytotoxicity (Cell Titer Glo, ATP); format: cell-based, human; conditions: human, THP1-Dual cells, read-out: Thp1 cytotox CC50
From the text: FIG. 9C is a CC50 (50% cytotoxic concentration) graph of AV-C dependent IRF activation in THP1-Dual cells, determined with an 8-point dose response experiment. Cell viability was monitored based on quantitation of ATP present, as an indicator of metabolically active cells, where luminescence is proportional to the amount of ATP present, using Cell-Titer Glo (Promega).
The OTRADI Small Molecule Library of approximately 246,000 diverse compounds (see below for description) was screened using the THP1-Dual based HTS platform described above. All transfer steps in the screen are fully automated, thus reducing variability. Primary screening included a single data point or dose for each molecule. After data normalization was applied for each assay run, “hit” selection was performed on the plates that pass the quality control (QC) criterion. Hits were defined as samples having values above the activity cutoff determined based on noise level of the assay to reduce false positive rates. In the pilot study discussed above this activity value was >3σ above the ISRE mean with the added criteria of NFκB activation being lower than […] from the mean to identify IRF selective compounds. The ratio of ISRE:NFκB activity was also calculated as a selectivity index for prioritizing hit selection. Primary hits underwent secondary screening to determine the 50% effective concentration (EC50) and 50% cytotoxic concentration (CC50) of these agents using an 8-point dose-response curve in the human THP1-Dual cells. Cytotoxicity was measured in the plate using Cell Titer Glo (Promega). Identified candidate compounds were further screened (orthogonal screen) for cross species activity in the validated mouse J774-Dual assay using an 8-point dose-response format to determine EC50 and CC50 values as well as ISRE:NFκB ratios. A general process flow for the experimental design laid out above is depicted at FIG. 12.

J774-Dual cytotoxicity = format: cell-based, mouse; conditions: mouse, J774-Dual cells, read-out: J774 cytotox CC50
Experimental: The OTRADI Small Molecule Library of approximately 246,000 diverse compounds (see below for description) was screened using the THP1-Dual based HTS platform described above. All transfer steps in the screen are fully automated, thus reducing variability. Primary screening included a single data point or dose for each molecule. After data normalization was applied for each assay run, “hit” selection was performed on the plates that pass the quality control (QC) criterion. Hits were defined as samples having values above the activity cutoff determined based on noise level of the assay to reduce false positive rates. […] The ratio of ISRE:NFκB activity was also calculated as a selectivity index for prioritizing hit selection. Primary hits underwent secondary screening to determine the 50% effective concentration (EC50) and 50% cytotoxic concentration (CC50) of these agents using an 8-point dose-response curve in the human THP1-Dual cells. Cytotoxicity was measured in the plate using Cell Titer Glo (Promega). Identified candidate compounds were further screened (orthogonal screen) for cross species activity in the validated mouse J774-Dual assay using an 8-point dose-response format to determine EC50 and CC50 values as well as ISRE:NFκB ratios. A general process flow for the experimental design laid out above is depicted at FIG. 12.

SMILES | CC50 ([1]; Human Reporter Cell Line) [µM] | CC50 (J774-Dual cytotoxicity; Mouse Reporter Cell Line) [µM] | CC50 ([1]; Human Reporter Cell Line THP1) [µM] | CC50 (J774-Dual cytotoxicity; Mouse Reporter Cell Line J774) [µM]
O=C(Nc1ccc(N2CCN(C(=O)c3cccs3)CC2)cc1)c1cccc2ccccc12 [NA-11] | > 25 | > 25 | – | –
CCOc1ccc(C(=O)Nc2cccc(-c3nc4cc(C(C)C)ccc4o3)c2)cc1[N+](=O)[O-] [ND-17] | – | – | > 25 | > 25
O=C(Nc1ccc(N2CCN(C(=O)c3cccs3)CC2)c(Cl)c1)c1ccc2c(c1)OCCO2 [NA-29] | 65 | 45.8 | – | –
Cc1ccc(C(=O)Nc2nc(C)c(-c3ccccc3)s2)cc1[N+](=O)[O-] [ND-32] | – | – | > 25 | > 25
Cc1ccc(-c2nc3cc(C(C)C)ccc3o2)cc1[N+](=O)[O-] [ND-57] | – | – | > 25 | > 25
O=C(Nc1ccc(N2CCN(C(=O)c3cccs3)CC2)cc1)c1ccc(N2CCCCC2)c([N+](=O)[O-])c1 [NA-70] | > 10 | > 10 | – | –
COc1ccc(C(=O)Nc2nc(-c3cc4ccccc4oc3=O)cs2)cc1[N+](=O)[O-] [ND-29] | – | – | > 25 | > 25
O=C(Nc1ccc(N2CCN(C(=O)c3ccc(Cl)cc3)CC2)cc1)c1ccc(OCc2ccccc2)cc1 [NA-45] | 10.7 | > 25 | – | –
O=c1cc(NC[C@H](O)[C@H](O)[C@H](O)CO)[nH]c(=O)[nH]1 [ND-100] | – | – | > 25 | > 25
Cc1cc(C(=O)Nc2cc(-c3nc4ccccc4s3)ccc2Cl)ccc1[N+](=O)[O-] [ND-51] | – | – | 22.1 | > 25
COc1ccc(C(=O)Nc2ccc(Cl)c(-c3nc4cc(C)c(C)cc4o3)c2)cc1[N+](=O)[O-] [ND-45] | – | – | 12.9 | > 25
O=C(Nc1ccc(N2CCN(C(=O)c3cccs3)CC2)cc1)c1ccccc1Br [NA-67] | > 10 | > 10 | – | –
O=C(Nc1ccc(N2CCN(C(=O)c3cccs3)CC2)cc1)c1cncc(-c2ccccc2)c1 [NA-40] | > 25 | > 25 | – | –
O=C(c1ccco1)N1CCN(c2ccccc2)CC1 [NA-5] | > 25 | > 25 | – | –
Cc1ccc(-c2nc3cc(C(C)C)ccc3o2)cc1NC(=O)c1ccc(Cl)cc1 [ND-53] | – | – | > 25 | > 25
O=C(Nc1ccc(N2CCN(C(=O)c3cccc(Cl)c3)CC2)cc1)c1ccc(OCc2ccccc2)cc1 [NA-48] | > 25 | > 25 | – | –
CC(=O)N1CCN(c2ccc(NC(=O)c3ccc(OCc4ccccc4)cc3)cc2)CC1 [NA-2] | > 25 | > 25 | – | –
O=C(Nc1ccc(N2CCN(C(=O)c3ccco3)CC2)cc1)c1ccccc1F [NA-3] | > 25 | > 25 | – | –
Cc1cc(NC(=O)c2ccc(OCc3ccccc3)cc2)ccc1N1CCN(C(=O)c2cccs2)CC1 [NA-74] | > 10 | > 10 | – | –

SMILES | CC50 ([1]; Human Reporter Cell Line) [µM] | CC50 (J774-Dual cytotoxicity; Mouse Reporter Cell Line) [µM] | CC50 ([1]; Human Reporter Cell Line THP1) [µM] | CC50 (J774-Dual cytotoxicity; Mouse Reporter Cell Line J774) [µM]
CCOc1ccc(C(=O)Nc2ccc(N3CCN(C(=O)c4cccs4)CC3)c(Cl)c2)cc1Br [NA-27] | > 25 | > 25 | – | –
Cc1ccc(-c2nc3cc(C(C)C)ccc3o2)cc1NC(=S)NC(=O)c1cccc(F)c1 [ND-11] | – | – | > 25 | > 25
CCOc1ccc(C(=O)Nc2ccc3oc(-c4cccnc4)nc3c2)cc1[N+](=O)[O-] [ND-44] | – | – | > 25 | > 25
O=C(Nc1ccc(N2CCN(C(=O)c3cccs3)CC2)cc1)c1ccc(Oc2ccccc2)cc1 [NA-26] | > 25 | > 25 | – | –
CCOc1ccc(C(=O)Nc2ccc(N3CCN(C(=O)c4cccs4)CC3)cc2)cc1[N+](=O)[O-] [NA-65] | > 10 | > 10 | – | –
O=C(Nc1ccc(N2CCN(C(=O)c3cccs3)CC2)cc1)c1ccc(Br)o1 [NA-8] | > 25 | > 25 | – | –
COc1ccc(-c2nc3cc(C(C)C)ccc3o2)cc1NC(=O)c1cccc([N+](=O)[O-])c1C [ND-15] | – | – | > 25 | > 25
COc1cccc(Cn2cc(CN3CCN(C(=O)c4cccs4)CC3)nn2)c1 [NA-57] | > 25 | > 25 | – | –
COc1ccc(C(=O)Nc2cccc(-c3nc4ccccc4s3)c2C)cc1[N+](=O)[O-] [ND-90] | – | – | > 25 | > 25
O=C(c1cccs1)N1CCN(Cc2cn(Cc3ccc(Cl)cc3)nn2)CC1 [NA-56] | > 25 | > 25 | – | –
O=C(Nc1ccc(N2CCN(C(=O)c3cccs3)CC2)cc1)c1cccc(Oc2ccccc2)c1 [NA-68] | > 10 | > 10 | – | –
COc1ccc(S(=O)(=O)Nc2cc(-c3nc4cc(C)c(C)cc4o3)ccc2C)cc1[N+](=O)[O-] [ND-107] | – | – | > 10 | > 10
COc1ccc(C(=O)Nc2ccc(OC)cc2OC)cc1 [ND-78] | – | – | > 25 | > 25
Cc1ccc(Cn2cc(CN3CCN(C(=O)c4cccs4)CC3)nn2)cc1 [NA-55] | > 25 | > 25 | – | –
Cc1ccc(-c2nc3cc(NC(=O)c4ccc(C)c([N+](=O)[O-])c4)ccc3o2)cc1 [ND-49] | – | – | 5.52 | > 25
Cc1ccc(-c2nc3cc(Cl)ccc3o2)cc1NC(=O)/C=C/c1cccc([N+](=O)[O-])c1 [ND-99] | – | – | > 25 | > 25
O=C(Nc1ccc(N2CCN(C(=O)c3cccs3)CC2)c(Cl)c1)c1ccc(OCc2ccccc2)cc1 [NA-73] | > 10 | > 10 | – | –
O=C(c1cccs1)N1CCN(Cc2cn(Cc3ccccc3Cl)nn2)CC1 [NA-58] | > 25 | > 25 | – | –
ClCCCOc1ccc(-c2nc3ccc(OCCCCl)cc3o2)cc1 [ND-73] | – | – | > 25 | > 25

SMILES | CC50 ([1]; Human Reporter Cell Line) [µM] | CC50 (J774-Dual cytotoxicity; Mouse Reporter Cell Line) [µM] | CC50 ([1]; Human Reporter Cell Line THP1) [µM] | CC50 (J774-Dual cytotoxicity; Mouse Reporter Cell Line J774) [µM]
Cc1cc2nc(-c3c[nH]c4ccccc34)oc2cc1C [ND-108] | – | – | > 10 | > 10
O=C(NCCC(=O)N1CCN(C(=O)c2cccs2)CC1)c1ccc(OCc2ccccc2)cc1 [NA-54] | > 25 | > 25 | – | –
O=C(Cc1cc(Br)cc(Br)c1)Nc1ccc(N2CCN(C(=O)c3cccs3)CC2)cc1 [NA-9] | > 25 | > 25 | – | –
COc1cc(C(=O)Nc2cc(-c3nc4cc(C(C)C)ccc4o3)ccc2C)cc(OC)c1OC [ND-14] | – | – | > 25 | > 25
Cc1ccc(-c2nc3cc(C(C)C)ccc3o2)cc1NC(=O)c1cc2ccccc2o1 [ND-12] | – | – | 47.6 | > 25
O=C(Nc1ccc(N2CCN(C(=O)c3ccncc3)CC2)cc1)c1ccc(OCc2ccccc2)cc1 [NA-37] | > 25 | > 25 | – | –
CC1=NN(c2ccccc2)C(=O)C1 [ND-77] | – | – | > 25 | > 25
O=C(Nc1ccc(N2CCN(C(=O)c3cccs3)CC2)c(Cl)c1)c1cc([N+](=O)[O-])ccc1N1CCOCC1 [NA-66] | > 10 | > 10 | – | –
Cc1ccc(C(=O)Nc2cc(-c3nc4cc(C(C)C)ccc4o3)ccc2C)cc1C [ND-9] | – | – | > 25 | > 25
O=C(Nc1ccc(N2CCN(C(=O)c3cccs3)CC2)cc1)c1ccc2c(c1)OCO2 [NA-12] | > 25 | > 25 | – | –
Cc1cc2nc(-c3ccc(C)c(Nc4[nH]c(=O)[nH]c(=O)c4[N+](=O)[O-])c3)oc2cc1C [ND-56] | – | – | > 25 | > 25
Cc1ccc(-c2nc3cc(OCCCN4CCCC4)ccc3o2)cc1[N+](=O)[O-] [ND-83] | – | – | > 25 | > 25
Cc1ccc(-c2nc3cc(O)ccc3o2)cc1[N+](=O)[O-] [ND-85] | – | – | > 25 | > 25
CCOC(=O)C1=CCCC[C@H]1S(=O)(=O)Nc1ccc(F)cc1Cl [ND-72] | – | – | > 25 | > 25
COc1ccc(C(=O)Nc2cc(-c3nc4cc(C(C)C)ccc4o3)ccc2C)cc1 [ND-10] | – | – | > 25 | > 25
Cc1cc2nc(-c3ccc(C)c(N)c3)oc2cc1C [ND-59] | – | – | > 25 | > 25
Cc1cc2nc(-c3ccc(C)c(NC(=O)c4ccc(C(F)(F)F)c([N+](=O)[O-])c4)c3)oc2cc1C [ND-75] | – | – | > 25 | > 25
COc1ccc(C(=O)Nc2cc(-c3nc4ccccc4s3)ccc2C)cc1C(F)(F)F [ND-87] | – | – | 3.02 | > 25
Cc1ccc(-c2nc3cc(C(C)C)ccc3o2)cc1NC(=O)c1ccc(F)c([N+](=O)[O-])c1 [ND-54] | – | – | 6.84 | > 25
